Source: article PMC9141032 (International Journal of Molecular Sciences, 2022)
≈ marks a conversion by molar mass, not a printed value. Where “and” joins values, the source holds several entries; their conditions need not be identical. Equal entries are not always repeated.

Tests used:
[1] = Metabolic stability in human liver microsomes; format: in vitro ADME; settings: HLM
Experimental: In the assay, the reaction was initiated by adding HLM (1 mg/mL) to an equal volume of buffer solution containing the test compound and cofactors at the proper concentrations. Reactions without NADPH were also incubated to rule out non-NADPH metabolism or chemical instability in the incubation buffer. Verapamil was included as a positive control to monitor incubation course. All reactions were terminated using 60 µL of ice-cold acetonitrile at 0, 5, 15, 30, 45, and 60 min. The plates were centrifugated at 3500 rpm for 15 min. All experiments were conducted in triplicate. Samples were monitored for B06 disappearance by LC-MS in MRM mode according to a quantitation method for B06. […]
concentration 1 μM, protein concentration 1 mg/mL, NADPH, 1.3 mM. Potassium phosphate buffer (100 mM) pH 7.4 and human liver microsomes, were purchased from Beckton Dickinson. […]
needed for the study was Beckman Coulter Refrigerated centrifuge, Agilent 1290 Infinity Liquid Chromatograph, CTC Analytics PAL HT‐xt injector, Api4000 Mass Spectrometer. Total incubation […]
Analysis: For the data analysis the area ratio of analyzed versus internal standard was used to calculate the percentage of remaning compound at each incubation time. The natural logarithm of […]
the following equation: Half‐life (T1/2) (min) = 0.693/k (the slope of the natural log of the percent remaining versus time). Intrinsic clearance was determined by the following equation: Clint H = Ln 2/t1/2 (min) x volume incubation (mL)/microsomal protein (mg) x 45 (MPPGL) 1500 g human liver/ 70 Kg human body weight. Units for CLint are usually expressed as mL/min/mg microsomal protein, MPPGL = referred to as mg microsomal protein per gram liver.
Table S1. Summary of LC‐MS conditions
Table S2. Percentage of verapamil remaining at each incubation time […]

[2] = Metabolic stability in mouse liver microsomes; settings: for % compound remaining: MLM
Experimental: The final concentration assay was 1
NADPH in 100 mM potassium phosphate buffer.
Spectrometer, Metabolite Pilot V 1.5 Software.
Method: Ionization mode, electrospray positive; adquisition mode, TOF MS with IDA MS/MS; column, Atlantis T3 C18, 2.1 x 15 mm, 3 μm; mobile phase, wa te r: acetonitrile: 0.1%: formic acid; flow rate, 0.3 mL/min; source temperature, 550 °C; column temperature, 25 °C; injection volume, 5 […]
concentration 1 mg/mL, NADPH 1.3 mM.
Table S5. Summary of LC‐MS conditions […]

[3] = tested on: SH-SY5Y cells; experiment: Nitrite production (Griess) in 6-OHDA-treated SH-SY5Y cells; format: cell-based, human; settings: 1 μM, 6-OHDA 25 μM 16 h
Description: Along with the neuronal loss, neuroinflammation is a process related to the onset of the disease, and it is an important contributor to the pathogenesis and progression of these disorders. […] .

[4] = design: method as in ref 32, 33 = [32]; 32. Escolano C. Pallás M. Griñán-Ferré C. Abás S. Callado L.-F. García-Sevilla J.A. Synthetic I 2 Imidazoline Receptor Ligands for Prevention or Treatment of Human Brain Disorders Patent WO 2019/12185 || [33]; PMID 32150414; doi:10.1021/acs.jmedchem.9b02080; 33. Abás S. Rodríguez-Arévalo S. Bagán A. Griñán-Ferré C. Vasilopoulou F. Brocos-Mosquera I. Muguruza C. Pérez B. Molins E. Luque F.J. Bicyclic α-Iminophosphonates as High Affinity Imidazoline I 2 Rec; settings: cited from earlier work
[5] = design: method as in ref 33 = [33]; PMID 32150414; doi:10.1021/acs.jmedchem.9b02080; 33. Abás S. Rodríguez-Arévalo S. Bagán A. Griñán-Ferré C. Vasilopoulou F. Brocos-Mosquera I. Muguruza C. Pérez B. Molins E. Luque F.J. Bicyclic α-Iminophosphonates as High Affinity Imidazoline I 2 Rec; settings: 1% DMSO and 99% PBS buffer; cited from earlier work
[6] = tested on: adult rats; design: method as in ref 33 = [33]; PMID 32150414; doi:10.1021/acs.jmedchem.9b02080; 33. Abás S. Rodríguez-Arévalo S. Bagán A. Griñán-Ferré C. Vasilopoulou F. Brocos-Mosquera I. Muguruza C. Pérez B. Molins E. Luque F.J. Bicyclic α-Iminophosphonates as High Affinity Imidazoline I 2 Rec; settings: 20 and 35 mg/kg intraperitoneally, 1 and 2 h postinjection; cited from earlier work
[7] = tested on: SH-SY5Y cells; experiment: Cytotoxicity in SH-SY5Y cells (MTT); settings: 24 h, 0.2 to 20 μM
[8] = Chemical stability in buffers at pH 2, 5 and 7.4

CCOP(=O)(OCC)[C@]1(c2ccccc2)N=C[C@H]2C(=O)N(c3ccc(F)c(Cl)c3)C(=O)[C@H]21 (racemic) [B06, diethyl (1RS,3aSR,6aSR)-5-(3-chloro-4-fluorophenyl)-4,6-dioxo-1-phenyl-1,3a,4,5,6,6a-hexahydropyrrolo[3,4-c]pyrrole-1-phosphonate]
hepatic clearance category ([1]; classification bands low/medium/high): medium clearance | % compound remaining ([1]; minus NADPH, 0 min): 103.2 ± 13.82% | % compound remaining ([1]; minus NADPH, 60 min): 75.30 ± 1.27% | % compound remaining ([1]; plus NADPH, 0 min): 100.00 ± 14.46% | % compound remaining ([1]; plus NADPH, 5 min): 98.60 ± 9.11% | % compound remaining ([1]; plus NADPH, 15 min): 77.90 ± 13.20% | % compound remaining ([1]; plus NADPH, 30 min): 54.10 ± 6.84% | % compound remaining ([1]; plus NADPH, 45 min): 41.3 ± 5.83% | % compound remaining ([1]; plus NADPH, 60 min): 29.40 ± 3.69% | half-life at 1 μM ([1]; human, human liver microsomes, pH 7.4, 1 µM, 1 mg/mL protein): 28.4 min | % compound remaining ([2]; minus NADPH, 0 min): 105.00 ± 23.97% | % compound remaining ([2]; minus NADPH, 60 min): 83.20 ± 2.87% | % compound remaining ([2]; plus NADPH, 0 min): 100.00 ± 25.58% | % compound remaining ([2]; plus NADPH, 5 min): 135.00 ± 7.06% | % compound remaining ([2]; plus NADPH, 15 min): 67.50 ± 4.15% | % compound remaining ([2]; plus NADPH, 30 min): 30.30 ± 5.28% | % compound remaining ([2]; plus NADPH, 45 min): 15.20 ± 1.98% | % compound remaining ([2]; plus NADPH, 60 min): 6.08 ± 0.01% | half-life at 1 μM ([2]; mouse, microsomes): 16.2 min | effect on nitrite production [3]: significantly reversed the increase in nitrite production | Pe value in PAMPA (BBB permeation) [4]: well above the threshold established for high BBB permeation | solubility [5]: 92 µM (≈ 44.1 µg/mL) | effect on body temperature [6]: hypothermia | cytotoxic effect on cell cultures (MTT) [7]: None of the concentrations used were cytotoxic | % B06 Remaining ([8]; pH 2, 37 °C, 0 min): 100 ± 8.84% | % B06 Remaining ([8]; pH 2, 37 °C, 5 min): 104 ± 9.81% | % B06 Remaining ([8]; pH 2, 37 °C, 15 min): 98 ± 11.30% | % B06 Remaining ([8]; pH 2, 37 °C, 30 min): 106 ± 9.97% | % B06 Remaining ([8]; pH 2, 37 °C, 60 min): 112 ± 11.2% | % B06 Remaining ([8]; pH 2, 37 °C, 120 min): 96 ± 13.6% | chemical stability ([8]; pH 2, up to 120 min): stable at pH 2 | chemical stability ([8]; pH 5): stable up to 1 h | % B06 Remaining ([8]; pH 5, 37 °C, 0 min): 100 ± 3.3% | % B06 Remaining ([8]; pH 5, 37 °C, 5 min): 97 ± 6.5% | % B06 Remaining ([8]; pH 5, 37 °C, 15 min): 100 ± 3.9% | % B06 Remaining ([8]; pH 5, 37 °C, 30 min): 87 ± 11.3% | % B06 Remaining ([8]; pH 5, 37 °C, 60 min): 98 ± 10.1% | % B06 Remaining ([8]; pH 5, 37 °C, 120 min): 75 ± 8.5% | % of the compound that suffered structural changes ([8]; pH 5, between 1 h and 2 h): 25% | % B06 Remaining ([8]; pH 7.4, 37 °C, 0 min): 100 ± 2.9% | % B06 Remaining ([8]; pH 7.4, 37 °C, 15 min): 77 ± 3.8% | % B06 Remaining ([8]; pH 7.4, 37 °C, 30 min): 75% and 75 ± 5.6% | % B06 Remaining ([8]; pH 7.4, 37 °C, 60 min): 53 ± 6.4% | % B06 Remaining ([8]; pH 7.4, 37 °C, 120 min): 19% and 19 ± 1.9% | % of the compound transformed ([8]; pH 7.4, 15 min): 25%
